Assay results: patent publication US8580556B2, “Sulfonylurea-responsive repressor proteins” (E. I. du Pont de Nemours and Company, priority 2008, dated 2013)

Assays:
[1] = pH 7; cited from earlier work
[2] = test system: tet operator (tetO); experiment: Electrophoretic gel mobility shift assay (EMSA), tet operator binding; conditions: ethametsulfuron repressor protein (L7A11) with TetO DNA; FIG. 7
[3] = test system: tetA promoter (PtetA)-lacZ reporter in E. coli KM3; assay type: cell-based; conditions: L1 hits; 20 μg/ml
[4] = test system: tobacco BY-2 cell culture; experiment: Tobacco BY-2 cell culture (dMMV-HRA) sulfonylurea resistance; assay type: cell-based, N. tabacum; conditions: 200 ppb chlorsulfuron
From the text: In addition to the leaf assay it was desired to have an in planta assay to enable high throughput screening of SuR libraries for optimal plant functionality. We designed a system similar to the leaf assay but using tobacco BY-2 cell culture in 96-well format. BY-2 cell culture was transformed with a dMMV-HRA construct such that the culture would withstand treatment with target sulfonylurea test compounds.

## COC(=O)c1sccc1S(=O)(=O)NC(=O)Nc1nc(C)nc(OC)n1 [Harmony®, thifensulfuron-methyl]
[1]
  logP: ~0.02

## Cc1c2c(c(O)c3c(O)cccc13)C(=O)[C@]1(O)C(=O)C(C(N)=O)=C(O)[C@@H](N(C)C)[C@@H]1C2 [atc, anhydrotetracycline]
[2]
  release of repressor from operator sequence by inducer: No change in operator release

## CCOC(=O)c1ccccc1S(=O)(=O)NC(=O)Nc1nc(Cl)cc(OC)n1 [chlorimuron, Chlorimuron-ethyl, reference compound]
[3]
  activator potency compared with the starting ligand Harmony®: more potent activators

## COc1nc(C)nc(NC(=O)NS(=O)(=O)c2ccccc2Cl)n1 [chlorsulfuron, 2 chloro N ((4 methoxy 6 methy 1,3,5 triazine 2 yl)aminocarbonyl)benzenesulfonamide, reference compound]
[3]
  activator potency compared with the starting ligand Harmony®: more potent activators
[4]
  growth of dMMV-HRA transformed BY-2 cell line: fully resistant

## CCOc1nc(NC)nc(NC(=O)NS(=O)(=O)c2ccccc2C(=O)OC)n1 [ethametsulfuron, Ethametsulfuron-methyl, reference compound]
[3]
  activator potency compared with the starting ligand Harmony®: more potent activators
[2]
  release of repressor from operator sequence by inducer: inducer preference for operator release
